The values that follow come from patent publication US8623324B2, “Luminescent dyes with a water-soluble intramolecular bridge and their biological conjugates” (AAT Bioquest Inc., priority 2010, dated 2014).

In this data set the test system is goat anti-rabbit IgG (GAR). As to the kind of experiment: Protein precipitation / water solubility of dye-protein conjugates at high dye/protein ratio. Format: physicochemical. The text has this: FIG. 1. […] Their PBS solutions are adjusted to have the same absorption of OD=0.05 at 600 nm. The PBS solutions are excited at 600 nm, and the emissions are scanned from 620 to 800 nm.
FIG. 2. […] Their PBS solutions are adjusted to have the same absorption of OD=0.05 at 600 nm. The PBS solutions are excited at 600 nm, and the emissions are scanned from 620 to 800 nm.
FIG. 3. […] Their PBS solutions are adjusted to have the same absorption of OD=0.1 at 450 nm. The PBS solutions are excited at 460 nm, and the emissions are scanned from 470 to 650 nm.
The typical method for protein conjugation with succinimidyl esters of the invention is as follows. Variations in ratios of dye to protein, protein concentration, time, temperature, buffer composition and other variables that are well known in the art are possible that still yield useful conjugates. A solution of the protein is prepared at about 10 mg/mL in 0.1M sodium bicarbonate. The labeling reagents are dissolved in a suitable solvent such as DMF or DMSO at about 10 mg/mL. Water is a suitable solvent for many dyes of the invention. Predetermined amounts of the labeling reagents are added to the protein solutions with stiffing. A molar ratio of 10 equivalents of dye to 1 equivalent of protein is typical, though the optimal amount varies with the particular labeling reagent, the protein being labeled and the protein's concentration, and is determined empirically.

Setting [1] is: ratio of dye/protein larger than 10.
[2] abbreviates: ratio of dye/protein larger than 8.

With `CC1(C)C2=[N+](CCCCCC(=O)NC(C(=O)NCCCCCC(=O)ON3C(=O)CCC3=O)CCCCNC(=O)CCCCCC3(C)/C(=C/C=C/C=C/2)N(CCCS(=O)(=O)O)c2ccc(S(=O)(=O)O)cc23)c2ccc(S(=O)(=O)[O-])cc21` (stereo not shown) [Compound 133], the “protein precipitation / water solubility of dye-protein conjugate” value (from here on “protein precipitation / water solubility”) under setting [1] is recorded as “causes protein to precipitate”.
`CC12CCCCCC(=O)NCCCCCCCCCCCCNC(=O)CCCCCC3(C)/C(=C/C=C/C=C/C1=[N+](CCCCCC(=O)ON1C(=O)CCC1=O)c1ccc(S(=O)(=O)O)cc12)N(CCCCCC(=O)ON1C(=O)CCC1=O)c1ccc(S(=O)(=O)O)cc13` (stereo not shown) [Compound 136]: under setting [2], the “protein precipitation / water solubility” value was “causes protein to precipitate”.
Take `CC1(C)C2=[N+](CCCCCC(=O)NC(Cc3ccc(S(=O)(=O)O)s3)C(=O)NCCCCC(C(=O)NCCCCCC(=O)ON3C(=O)CCC3=O)NC(=O)C(Cc3ccc(S(=O)(=O)[O-])s3)NC(=O)CCCCCC3(C)/C(=C/C=C/C=C/2)N(CCCS(=O)(=O)O)c2ccc(S(=O)(=O)O)cc23)c2ccc(S(=O)(=O)O)cc21` (stereo not shown) [Compound 134]: the “protein precipitation / water solubility” value under setting [1] was “still water soluble”.
As to `CC12CCCCCC(=O)NCCCCCNC(=O)C(CS(=O)(=O)O)NC(=O)C(CS(=O)(=O)O)NC(=O)C(CS(=O)(=O)O)NC(=O)CCCCCC3(C)/C(=C/C=C/C=C/C1=[N+](CCCCCC(=O)ON1C(=O)CCC1=O)c1ccc(S(=O)(=O)O)cc12)N(CCCCCC(=O)ON1C(=O)CCC1=O)c1ccc(S(=O)(=O)O)cc13` (stereo not shown) [Compound 39], the “protein precipitation / water solubility” value under setting [2] is listed as “still water soluble”.
